Assay results from the supplement of paper PMC10307832.

Experiments:
Assay in all cases: relative viability (nuclei count vs DMSO), 5 days (fraction); higher = more cells survive
[1] = compound: CN1CCC(CC1)OC2=CC(=C(C=C2)NC3=NC=C4C(=N3)N(C(=O)N4C)C5CCCC5)OC [AZ3146] + CC1(C)CCC(c2ccc(Cl)cc2)=C(CN2CCN(c3ccc(C(=O)NS(=O)(=O)c4ccc(N[C@H](CCN5CCOCC5)CSc5ccccc5)c(S(=O)(=O)C(F)(F)F)c4)cc3)CC2)C1 [Navitoclax] (partner 0.5 µM)
How it was run: (§1)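 A single step with final 0.05% Triton X-100, 1% formaldehyde and 1 ug/ml Hoechst fixed the cells and stained nuclei 5 days after treatment. Lung cancer cell lines in 1536-well plates had been treated by pin tool the day after seeding with one drug alone or a fixed anchor-drug dose plus five library-drug doses (not always all listed) in √10 steps, and nuclei were counted on 4× images. Relative viability is the ratio of nuclei in treated wells to nuclei in vehicle wells, taken as the median of duplicate plates.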

[2] = compound: CN1CCC(CC1)OC2=CC(=C(C=C2)NC3=NC=C4C(=N3)N(C(=O)N4C)C5CCCC5)OC [AZ3146] + CC(=O)c1c(C)c2cnc(Nc3ccc(N4CCNCC4)cn3)nc2n(C2CCCC2)c1=O [Palbociclib] (partner 0.5 µM)
How it was run: as §1

[3] = compound: CCOC(=O)CCNc1cc(N2CCc3ccccc3CC2)nc(-c2ccccn2)n1 [GSK-J4] + Cc1cc(Nc2cc(N3CCN(C)CC3)nc(Sc3ccc(NC(=O)C4CC4)cc3)n2)n[nH]1 [Tozasertib] (partner 0.1 µM)
How it was run: as §1

[4] = compound: CN1CCC(CC1)OC2=CC(=C(C=C2)NC3=NC=C4C(=N3)N(C(=O)N4C)C5CCCC5)OC [AZ3146] + C[C@]1(O)C[C@@H](c2nc(-c3ccc4ccc(-c5ccccc5)nc4c3)c3c(N)nccn32)C1 [Linsitinib] (partner 1 µM)
How it was run: as §1

Cell Line	relative viability ([1]; first compound 0.08 µM)	relative viability ([1]; first compound 0.253 µM)	relative viability ([1]; first compound 0.8 µM)	relative viability ([1]; first compound 2.53 µM)	relative viability ([1]; first compound 8 µM)	relative viability ([2]; first compound 0.08 µM)	relative viability ([2]; first compound 0.253 µM)	relative viability ([2]; first compound 0.8 µM)	relative viability ([2]; first compound 2.53 µM)	relative viability ([2]; first compound 8 µM)	relative viability ([3]; first compound 0.5 µM)	relative viability ([3]; first compound 1.581 µM)	relative viability ([3]; first compound 5 µM)	relative viability ([3]; first compound 15.81 µM)	relative viability ([3]; first compound 50 µM)	relative viability ([4]; first compound 0.08 µM)	relative viability ([4]; first compound 0.253 µM)	relative viability ([4]; first compound 0.8 µM)	relative viability ([4]; first compound 2.53 µM)	relative viability ([4]; first compound 8 µM)
NCI-H2009	1.02	1.27	1.2	1.25	1.03	0.256	0.227	0.243	0.171	0.204	0.69	0.663	0.681	0.717	0.306	1.09	1.22	1.22	1.27	1.16
COR-L 105	0.805	0.712	0.745	0.791	0.711	0.408	0.365	0.377	0.346	0.372	0.311	0.371	0.36	0.394	0.387	0.963	1.2	0.891	0.888	0.787
NCI-H1623	–	–	–	–	–	–	–	–	–	–	0.437	0.467	0.455	0.435	0.451	–	–	–	–	–
HCC-827	0.964	1.02	0.997	1.02	0.998	0.544	0.471	0.467	0.421	0.516	0.408	0.434	0.44	0.4	0.362	0.907	0.889	0.946	1.02	1.01
EMC-BAC-2	1.07	1.23	1.25	1.21	1.26	0.466	0.519	0.555	0.53	0.514	0.251	0.248	0.215	0.263	0.285	0.81	0.756	0.836	0.791	0.82
NCI-H1703	1.06	0.91	0.993	0.708	0.283	–	–	–	–	–	–	–	–	–	–	0.824	1.15	0.637	0.872	0.924
NCI-H2170	0.705	0.528	0.632	0.576	0.645	0.341	0.361	0.394	0.398	0.377	0.599	0.544	0.692	0.759	0.512	–	–	–	–	–
NCI-H1755	0.992	1	0.948	1.03	1.01	0.414	0.427	0.434	0.479	0.431	0.585	0.582	0.553	0.531	0.581	0.885	1.02	0.932	1.01	0.972
ChaGo-K-1	1	1	0.897	0.996	0.672	0.935	0.927	0.894	0.896	0.862	0.221	0.213	0.236	0.236	0.21	–	–	–	–	–
EKVX	0.817	0.907	0.898	1.02	1.16	0.406	0.373	0.284	0.431	0.368	0.379	0.213	0.406	0.346	0.334	0.945	1	0.819	1.09	0.95
HCC-78	–	0.795	0.718	0.899	0.736	0.486	0.483	0.414	0.54	0.425	0.426	0.401	0.494	0.379	0.348	–	0.476	0.416	0.532	0.522
A-427	0.96	0.967	0.957	0.98	0.943	0.482	0.521	0.497	0.493	0.463	0.233	–	0.22	0.18	0.157	1.08	1.07	1.04	1.19	1.12
NCI-H3122	1.05	0.985	1.03	1	1.03	0.179	0.19	0.228	0.23	0.19	0.516	–	0.371	0.275	0.442	1.02	1.06	1.03	1.04	1.06
NCI-H1563	–	–	–	–	–	–	–	–	–	–	–	–	–	–	–	1.09	1.36	1.15	1.24	1.35
SK-MES-1	1.32	1.22	1.3	1.35	1.35	0.331	0.344	0.346	0.291	0.305	0.821	0.854	0.736	0.856	0.524	1.06	1.06	1.01	1.09	1.12
SW 1573	0.997	1.1	1.04	0.93	0.895	0.359	0.368	0.421	0.401	0.358	0.206	0.129	0.164	0.199	0.177	0.912	0.933	0.823	0.859	0.708
NCI-H2347	0.76	0.763	0.594	0.88	0.833	0.441	0.435	0.457	0.463	0.415	0.573	0.452	0.534	–	0.476	1.01	0.893	0.891	0.887	0.988
LC-2-ad	0.425	0.385	0.649	0.519	0.685	0.419	0.546	0.475	0.455	0.453	0.429	0.377	0.41	0.399	0.36	0.782	0.886	0.775	0.845	0.863
